Measured values published in patent US20220259164A1, “USE OF AMINOTHIOL COMPOUNDS AS CEREBRAL NERVE OR HEART PROTECTIVE AGENT” (SHANGHAI KECHOW PHARMA, INC., priority 2019, published 2022).
Where “and” joins values, the source holds several entries; their conditions need not be identical. Equal entries are not always repeated. Where a SMILES comes first, the peptide text is derived from it. [ ]: non-standard residue; d: D form. NMeC = CN[C@@H](CS)C(=O)O

Key:
[1] = system: bleomycin (BLM)-induced scleroderma mouse model; experiment: Hydroxyproline level in skin lesion, BLM-induced scleroderma mouse model; format: in vivo, mice; settings: compound A (hydrochloride) 600 mg/kg/d by gavage or compound B (trifluoroacetate) 200 mg/kg/d i.p., 28 days with BLM
Source text: Materials: C57BL/6 female mice, weighing 20-25 g, were purchased from Shanghai SLAC Laboratory Animal Co., Ltd. Using a random number table method, 24 mice were divided into a blank control group (1), a scleroderma model group (2), a scleroderma+compound A treatment group (3), and a scleroderma+compound B treatment group (4), with 6 mice in each group. Bleomycin (BLM) was purchased from Sigma. An H-E staining kit was purchased from Beijing Solarbio Science & Technology Co., Ltd. Compound A used in this example was in the form of a hydrochloride thereof, and compound B was in the form of a trifluoroacetate thereof.
Method: The intended injection site (area 1 cm^2) of the mice was shaved using an electric shaver. […] Conventional iodine tincture was used to disinfect the back skin of the mice, and a local diseased skin tissue was surgically cut, fixed in 4% paraformaldehyde, embedded in paraffin, sectioned, and analyzed by H-E staining. […]
Method: Part of the skin lesion tissue of the mice was taken, and the contents of hydroxyproline and hydrogen peroxide in the skin lesion region were detected according to the requirements in the kit instructions.

[2] = system: rat myocardial infarction model (coronary ligation 30 min, reperfusion); experiment: Myocardial infarction model: myocardial enzyme LDH in serum; format: in vivo; settings: for Improvement rate (%) of LDH: compared with model group; for LDH: serum, x ± s, n = 10
Method: 1. The rats were grouped and administered according to the following methods (2) Compound B (i.v.) at 100 mg/kg (3) Compound A (i.v.) at 100 mg/kg (4) Compound A (oral) at 500 mg/kg (5) Isosorbide mononitrate injection (i.v.) at 1 mg/kg (equivalent to clinical equivalent dose). There were 10 rats in each group, and the rats were administered intravenously immediately after 30 min of ischemia and reperfusion, i.v. 10% 1 min+i.v. drip 90% 30 min. The administration volume was 2 ml/rat. Compound A (oral) at 500 mg/kg was administered intragastrically 2 h after reperfusion when the animal was awake, and the administration volume was 10 ml/kg. Note: Compounds A and B used in this example were in the form of hydrochloride salts thereof. Given intraperitoneal injection of 3% sodium pentobarbital at 60 mg/kg for general anesthesia, the rats were fixed on an operating table in the supine position. The surgical field of the anterolateral chest was depilated and routinely disinfected. The skin and muscular layer were cut open, purse-string suture was performed on the muscular layer, the chest was opened on the left at the fourth intercostal space, and the heart was pulled out with a ring-shaped retractor. At the position of the anterior descending coronary artery 3-4 mm below the left atrial appendage, a 6/0 damage-free silk thread was threaded, and a nylon thread with a diameter of 1.6 mm was juxtaposed and ligated together with the anterior descending coronary artery, while the other end was left outside the body for later use. The heart was placed back into the chest cavity, the air in the chest cavity was emptied, and the chest cavity was closed. 30 min after ligation, the nylon thread was carefully removed for reperfusion. Compared with the normal lead II electrocardiogram (ECG-II), ST segment elevation in ECG-II by 0.1 mV or more 30 min after coronary artery ligation was regarded as successful ischemia. […] Blood was collected from the rats through the abdominal aorta and centrifuged at 3000 rpm×10 min at 4° C., and the upper serum was taken to determine LDH by enzyme-linked immunosorbent assay.

[3] = system: cisplatin-induced nephrotoxicity in SD rats; experiment: Cisplatin-induced nephrotoxicity in SD rats: blood creatinine and urea nitrogen; format: in vivo, rat; settings: for Effect on cisplatin-induced increase of blood creatinine and urea nitrogen (in words): 30 min prior to cisplatin 5 mg/kg i.p.: compound B 200 mg/kg i.p., compound A 800 mg/kg p.o., amifostine 200 mg/kg i.p., day 5; for Creatinine / Urea nitrogen: whole blood day 5, individual rats
Method: Healthy male SPF grade SD rats (body weight 250-300 g) were selected. Control group: PBS […] Cisplatin+compound B group: 5 mg/kg i.p.+compound B at 200 mg/kg i.p., with compound B being administered 30 min prior to cisplatin administration Cisplatin+amifostine group: 5 mg/kg i.p.+AMI at 200 mg/kg i.p., with AMI being administered 30 min prior to cisplatin administration Cisplatin+compound A group: 5 mg/kg i.p.+compound A at 800 mg/kg p.o., with compound A being administered 30 min prior to cisplatin administration (1) The SD rats used in the experiment were weighed, labeled, and evenly divided into 5 groups, with 3 SD rats in each group. (2) The compound B, compound A, and AMI groups were respectively administered at the planned concentrations. […] (3) The rats were weighed and recorded daily, and on day 5, blood was taken from the intraocular canthus of the SD rats and placed in an anticoagulant tube.

[4] = compound A (hydrochloride) i.v. 100 mg/kg
[5] = compound A (hydrochloride) oral 500 mg/kg
[6] = compound A (trifluoroacetate) 800 mg/kg p.o. 30 min prior to cisplatin 5 mg/kg i.p.
[7] = compound B (hydrochloride) i.v. 100 mg/kg
[8] = compound B (trifluoroacetate) 200 mg/kg i.p. 30 min prior to cisplatin 5 mg/kg i.p.

SMILES	Level of hydroxyproline in the skin lesion site [1]	Improvement rate (%) of LDH [2, 4] [%]	LDH [2, 4] [U/L]	Improvement rate (%) of LDH [2, 5] [%]	LDH [2, 5] [U/L]	Effect on cisplatin-induced increase of blood creatinine and urea nitrogen (in words) [3]	Creatinine [3, 6]	Urea nitrogen [3, 6]	Improvement rate (%) of LDH [2, 7] [%]	LDH [2, 7] [U/L]	Creatinine [3, 8]	Urea nitrogen [3, 8]
CNC(=O)[C@H](CS)NC(=O)[C@H](CS)NC [Compound A, (R)-3-mercapto-N—((R)-3-mercapto-1-(methylamino)-1-oxoprop-2-yl)-2-(methylamino)propionamide] (H-[NMeC]-Cys-NHMe)	down-regulated	19.9	1521.6 ± 353.6	25.8	1408 ± 308.7	significantly reduce the increased blood creatinine and urea nitrogen levels	28.4 µmol/L and 18.1 µmol/L and 17.1 µmol/L	7.68 mmol/L and 7.16 mmol/L and 10.21 mmol/L	–	–	–	–
CNC(=O)[C@H](CS)NC(=O)[C@H](CS)NC(=O)[C@H](CS)NC [Compound B, (R)-3-mercapto-N—((R)-3-mercapto-1-(((R)-3-mercapto-1-(methylamino)-1-oxoprop-2-yl)amino)-1-oxoprop-2-yl)-2-(methylamino)propionamide] (H-[NMeC]-Cys-Cys-NHMe)	down-regulated	–	–	–	–	significantly reduce the increased blood creatinine and urea nitrogen levels	–	–	22.2	1476.7 ± 282.4	18.1 µmol/L and 14.7 µmol/L and 30.4 µmol/L	7.28 mmol/L and 5.71 mmol/L and 6.77 mmol/L
